For 43 molecules, IC50 and DC50 results are on record in patent US11414416B1, “Compounds and uses thereof” (Foghorn Therapeutics Inc., priority 2019, dated 2022).

The term IC50 denotes the concentration needed to halve the response being measured.

Nanoluciferase-BRD9 fusion protein, sequence (Q9H8M2 whole entry, the tested form may be a part): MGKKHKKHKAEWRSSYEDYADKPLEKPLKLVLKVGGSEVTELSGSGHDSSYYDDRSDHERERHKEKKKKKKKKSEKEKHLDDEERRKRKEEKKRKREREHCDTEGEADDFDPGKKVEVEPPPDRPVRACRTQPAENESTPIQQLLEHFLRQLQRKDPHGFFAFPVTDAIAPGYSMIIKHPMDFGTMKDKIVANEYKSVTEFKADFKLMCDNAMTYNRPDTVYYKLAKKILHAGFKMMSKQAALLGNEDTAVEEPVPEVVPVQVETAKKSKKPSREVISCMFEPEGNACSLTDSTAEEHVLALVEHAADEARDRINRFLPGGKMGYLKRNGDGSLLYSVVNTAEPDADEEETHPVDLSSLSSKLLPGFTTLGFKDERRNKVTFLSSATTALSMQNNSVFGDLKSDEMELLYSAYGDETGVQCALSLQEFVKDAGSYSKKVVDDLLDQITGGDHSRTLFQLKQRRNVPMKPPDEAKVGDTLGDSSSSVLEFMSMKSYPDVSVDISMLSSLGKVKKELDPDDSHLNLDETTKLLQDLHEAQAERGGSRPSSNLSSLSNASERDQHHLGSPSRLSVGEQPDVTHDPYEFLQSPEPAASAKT

One test concerns the target Nanoluciferase-BRD9 fusion protein (Homo sapiens (Human), UniProt Q9H8M2). Kind of test: SYO1 BRD9 NanoLuc degradation assay. It is filed as cell-based. To be noted: Table 5A; SYO-1 cells expressing 3×FLAG-NLuc-BRD9, 6 hours. In a few lines: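 Degradation was read as loss of nanoluciferase signal (Nano-Glo) after 6 h compound exposure in a stable SYO-1 line carrying 3×FLAG-NLuc-BRD9 (8000 cells/well). Normalised between DMSO (high) and a 1 μM known BRD9 degrader (low).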
In the case of `COc1cc(-c2cn(C)c(=O)c3cnccc23)cc(OC)c1CN1CC2(CCN(C(=O)CCOCCOc3cccc4c3C(=O)N(C3CCC(=O)NC3=O)C4=O)C2)C1` (stereo not shown) [Compound D90], the IC50 fell in the range of 10 to 100 nM.

The same test, now with this note: Table 5A; SYO-1 cells expressing 3×FLAG-NLuc-BRD9, 6 hours; read-out: SYO1 BRD9-NanoLuc degradation IC50.
As for `COc1cc(-c2cn(C)c(=O)c3cnccc23)cc(OC)c1CN1CC(CC(=O)N2CC3(CCC(Oc4ccc5c(c4)C(=O)N(C4CCC(=O)NC4=O)C5=O)C3)C2)C1` (stereo not shown) [Compound D79], the DC50 lay within 100 to 1000 nM. The same measure, in the same setting: the figure for `COc1cc(-c2cn(C)c(=O)c3cnccc23)cc(OC)c1CN1CCC(CCN2CCN(c3ccc4c(c3)C(=O)N(C3CCC(=O)NC3=O)C4=O)CC2)CC1` (stereo not shown) [Compound D42, 5-(4-(2-(1-(2,6-dimethoxy-4-(2-methyl-1-oxo-1,2-dihydro-2,7-naphthyridin-4-yl)benzyl)piperidin-4-yl)ethyl)piperazin-1-yl)-2-(2,6-dioxopiperidin-3-yl)isoindoline-1,3-dione formic acid] is under 10 nM; for `COc1cc(-c2cn(C)c(=O)c3cnccc23)cc(OC)c1CN1CCC2(CC1)CN(CCOc1ccc3c(c1)C(=O)N(C1CCC(=O)NC1=O)C3=O)CCO2` (stereo not shown) [Compound D49, 5-[2-(9-[[2,6-dimethoxy-4-(2-methyl-1-oxo-2,7-naphthyridin-4-yl)phenyl]methyl]-1-oxa-4,9-diazaspiro[5.5]undecan-4-yl)ethoxy]-2-(2,6-dioxopiperidin-3-yl)isoindole-1,3-dione] it is over 1000 nM; for `COc1cc(-c2cn(C)c(=O)c3cnccc23)cc(OC)c1CN1CC(CC(=O)N2CCC3(CC2)CN(c2ccc4c(c2)C(=O)N(C2CCC(=O)NC2=O)C4=O)C3)C1` (stereo not shown) [Compound D76] it is under 10 nM. Still for that read-out and setting: for `COc1cc(-c2cn(C)c(=O)c3cnccc23)cc(OC)c1CN1CC(S(=O)(=O)NCCOCCNc2cccc3c2C(=O)N(C2CCC(=O)NC2=O)C3=O)C1` (stereo not shown) [Compound D45, 1-[[2,6-dimethoxy-4-(2-methyl-1-oxo-2,7-naphthyridin-4-yl)phenyl]methyl]-N-[2-(2-[[2-(2,6-dioxopiperidin-3-yl)-1,3-dioxoisoindol-4-yl]amino]ethoxy)ethyl]azetidine-3-sulfonamide] the value was under 10 nM.

The test is the same for the next values; noted with them: Table 5B; SYO-1 cells expressing 3×FLAG-NLuc-BRD9, 6 hours; read-out: SYO1 BRD9-NanoLuc degradation IC50.
For the molecule `COc1cc(-c2cn(C)c(=O)c3cnccc23)cc(OC)c1CN1CCN(CC#Cc2ccc3c(c2)C(=O)N(C2CCC(=O)NC2=O)C3=O)CC1` (stereo not shown) [Compound D237], the DC50 is under 10 nM. Turning to `COc1cc(-c2cn(C)c(=O)c(C)c2C)c(OC)cc1CN1CC(CN2CCC3(CC2)CN(c2ccc4c(c2)C(=O)N(C2CCC(=O)NC2=O)C4=O)C3)C1` (stereo not shown) [Compound D354], the DC50 was under 10 nM. Take `COc1cc(-c2cn(C)c(=O)c3cnccc23)cc(OC)c1CN(C)C(=O)CCCCN1CCC2(C1)CN(c1ccc3c(c1)C(=O)N(C1CCC(=O)NC1=O)C3=O)C2` (stereo not shown) [Compound D203]: the DC50 was under 10 nM. Same read-out and setting: the figure for `COc1cc(-c2cn(C)c(=O)c3cnccc23)cc(OC)c1CN1CCC2(C1)CN(CCCC#Cc1ccc3c(c1)C(=O)N(C1CCC(=O)NC1=O)C3=O)C2` (stereo not shown) [Compound D238] is under 10 nM; for `COc1cc(-c2cc(C)c(=O)n(C)c2)cc(OC)c1CN1Cc2cc3c(cc2C1)C(=O)N(C1CCC(=O)NC1=O)C3=O` (stereo not shown) [DD9] it is under 10 nM; for `COc1cc(-c2cn(C)c(=O)c3cnccc23)cc(OC)c1CN(C)CCCCCCCCNc1cccc2c1CN(C1CCC(=O)NC1=O)C2=O` (stereo not shown) [DD4] it is under 10 nM. As to `COc1cc(-c2cn(C)c(=O)c(C)c2C)cc(OC)c1CN1CCN(CCC2CCN(c3ccc4c(c3)CN(C3CCC(=O)NC3=O)C4=O)CC2)CC1` (stereo not shown) [Compound D362], the DC50 was under 10 nM. On to `COc1cc(-c2cn(C)c(=O)c3cnccc23)cc(OC)c1CN1CCC(n2cc(CCOc3ccc4c(c3)C(=O)N(C3CCC(=O)NC3=O)C4=O)nn2)CC1` (stereo not shown) [Compound D279], for which the DC50 was under 10 nM.

Take `COc1cc(-c2cn(C)c(=O)c3cnccc23)cc(OC)c1CN1CCC(n2ccc(COc3ccc4c(c3)C(=O)N(C3CCC(=O)NC3=O)C4=O)n2)CC1` (stereo not shown) [Compound D323]: the DC50 was under 10 nM. Turning to `COc1cc(-c2cn(C)c(=O)c3cnccc23)cc(OC)c1CN1CC2(CCN(C(=O)CCC#Cc3ccc4c(c3)C(=O)N(C3CCC(=O)NC3=O)C4=O)CC2)C1` (stereo not shown) [Compound D219], the DC50 is under 10 nM. Same read-out and setting: for `COc1cc(-c2cn(C)c(=O)c3cnccc23)cc(OC)c1CN(C)CCn1cc(COCCOc2ccc3c(c2)C(=O)N(C2CCC(=O)NC2=O)C3=O)nn1` (stereo not shown) [Compound D275] the value was under 10 nM; for `COc1cc(-c2cn(C)c(=O)c3cnccc23)cc(OC)c1CN(C)C(=O)CCCCNC1CCC12CN(c1ccc3c(c1)C(=O)N(C1CCC(=O)NC1=O)C3=O)C2` (stereo not shown) [Compound D255], under 10 nM. Take `COc1cc(-c2cn(C)c(=O)c3nc(O)ccc23)cc(OC)c1CN1CCC(CN2CCC3(CC2)CC(Oc2ccc4c(c2)CN(C2CCC(=O)NC2=O)C4=O)C3)CC1` (stereo not shown) [Compound D371]: the DC50 was under 10 nM.

`COc1cc(-c2cn(C)c(=O)c3cnccc23)cc(OC)c1CN1CCC(n2cc(COc3ccc4c(c3)C(=O)N(C3CCC(=O)NC3=O)C4=O)cn2)CC1` (stereo not shown) [Compound D324]: the DC50 is under 10 nM.

Turning to `COc1cc(-c2cn(C)c(=O)c3cnccc23)cc(OC)c1CN1CCC(n2cc(COC3CCN(c4ccc5c(c4)C(=O)N(C4CCC(=O)NC4=O)C5=O)CC3)nn2)CC1` (stereo not shown) [Compound D281], the DC50 lay within 10 to 100 nM. In the case of `COc1cc(-c2cn(C)c(=O)c3cnccc23)cc(OC)c1CN1CCC(n2cc(CN3CC(Oc4ccc5c(c4)C(=O)N(C4CCC(=O)NC4=O)C5=O)C3)nn2)CC1` (stereo not shown) [Compound D280], the DC50 was under 10 nM. The same measure, in the same setting: the figure for `COc1cc(-c2cc(C)c(=O)n(C)c2C)cc(OC)c1CN1CCN(c2ccc3c(c2)C(=O)N(C2CCC(=O)NC2=O)C3=O)CC1` (stereo not shown) [Compound D343] is under 10 nM; for `COc1cc(-c2cn(C)c(=O)c3cnccc23)cc(OC)c1CN(C)CC(=O)NCCN1Cc2cc3c(cc2C1)C(=O)N(C1CCC(=O)NC1=O)C3=O` (stereo not shown) [DD6] it is 10 to 100 nM. Turning to `COc1cc(-c2cn(C)c(=O)c3cnccc23)cc(OC)c1CN(C)CCCCN1CCC2(CC1)CC(Oc1ccc3c(c1)C(=O)N(C1CCC(=O)NC1=O)C3=O)C2` (stereo not shown) [Compound D228], the DC50 was under 10 nM. `COc1cc(-c2cn(C)c(=O)c3cnccc23)cc(OC)c1CN(C)CCOCCOCCOCC(=O)N[C@@H](C(=O)N1C[C@@H](O)C[C@@H]1C(=O)NCc1ccc(-c2scnc2C)cc1)C(C)(C)C` [DD1]: the DC50 was over 1000 nM. As to `COc1cc(-c2cn(C)c(=O)c3cnccc23)cc(OC)c1CN1CC(n2cc(CCOc3ccc4c(c3)C(=O)N(C3CCC(=O)NC3=O)C4=O)nn2)C1` (stereo not shown) [Compound D298], the DC50 is under 10 nM.

For the molecule `COc1cc(-c2cn(C)c(=O)c3cnccc23)cc(OC)c1CN1CC(CC(=O)N2CC3(C2)CN(c2ccc4c(c2)C(=O)N(C2CCC(=O)NC2=O)C4=O)C3)C1` (stereo not shown) [Compound D195], the DC50 is 10 to 100 nM. For `COc1cc(-c2cn(C)c(=O)c3cnccc23)cc(OC)c1CN(C)CCn1cc(CCOc2ccc3c(c2)C(=O)N(C2CCC(=O)NC2=O)C3=O)nn1` (stereo not shown) [Compound D274], the DC50 is under 10 nM.

Consider `COc1cc(-c2cn(C)c(=O)c3cnccc23)cc(OC)c1CN(C)C1CCN(CCOc2ccc3c(c2)C(=O)N(C2CCC(=O)NC2=O)C3=O)CC1` (stereo not shown) [Compound D178], for which the DC50 was under 10 nM.

The test is the same for the next values; noted with them: Table 5C; SYO-1 cells expressing 3×FLAG-NLuc-BRD9, 6 hours.
The molecule `C/C=C/Cn1cc(-c2ccc(CN3CCN(S(=O)(=O)c4ccc5c(c4)C(=O)N(C4CCC(=O)NC4=O)C5)CC3)c(Cl)c2)n2cncc2c1=O` (stereo not shown) [Compound D464] returned an IC50 of over 1000 nM. On the same count and under the same terms, the figure for `COc1cc(-c2cc(C)c(=O)n(C)c2)cc(OC)c1CN1CC(C)(C#Cc2ccc3c(c2)C(=O)N(C2CCC(=O)NC2=O)C3)C1` (stereo not shown) [Compound D450] is under 10 nM.

The test is the same for the next values; noted with them: Table 5C; SYO-1 cells expressing 3×FLAG-NLuc-BRD9, 6 hours; read-out: SYO1 BRD9-NanoLuc degradation IC50.
With `COc1cc(-c2cc(C)c(=O)n(C)c2)cc(OC)c1CN1CC(C#Cc2ccc3c(c2)CN(C2CCC(=O)NC2=O)C3=O)C1` (stereo not shown) [Compound D440], the DC50 is under 10 nM.

As to `COc1cc(-c2cn(C)c(=O)c3cncn23)cc(OC)c1CN1CCC2(CC1)CN(c1ccc3c(c1)C(=O)N(C1CCC(=O)NC1=O)C3)C2` (stereo not shown) [Compound D428], the DC50 is under 10 nM. Same read-out and setting: for `COc1cc(-c2cn(C)c(=O)c3cnccc23)cc(OC)c1CN1CC(Oc2ccc3c(c2)CN(C2CCC(=O)N(COC(=O)[C@@H](N)C(C)C)C2=O)C3=O)C1` (stereo partly shown) [Compound D384] the value was under 10 nM; for `COc1cc(-c2cn(C)c(=O)c3nccn23)cc(OC)c1CN1CCC2(CC1)CN(c1ccc3c(c1)C(=O)N(C1CCC(=O)NC1=O)C3)C2` (stereo not shown) [Compound D447], 100 to 1000 nM. In the case of `COc1cc(-c2cn(C)c(=O)c3nn(C)cc23)cc(OC)c1CN1CCC2(CC1)CN(c1ccc3c(c1)C(=O)N(C1CCC(=O)NC1=O)C3)C2` (stereo not shown) [Compound D421], the DC50 is under 10 nM.

For `COc1cc(-c2cn(C)c(=O)c3cn(C)nc23)cc(OC)c1CN1CCC(CN2CCC3(CC2)CN(c2ccc4c(c2)C(=O)N(C2CCC(=O)NC2=O)C4)C3)CC1` (stereo not shown) [Compound D405], the DC50 was under 10 nM. As for `Cn1ccc2oc(C(=O)NC3CCN(c4ccc5c(c4)C(=O)N(C4CCC(=O)NC4=O)C5)CC3)cc2c1=O` (stereo not shown) [DD16], the DC50 lay within 10 to 100 nM. The same measure, in the same setting: the figure for `COc1cc(-c2cc(C(F)F)c(=O)n(C)c2)cc(OC)c1CN1CCC(CN2CCC3(CC2)CN(c2ccc4c(c2)C(=O)N(C2CCC(=O)NC2=O)C4)C3)CC1` (stereo not shown) [Compound D407] is under 10 nM. Regarding `COc1cc(-c2cn(C)c(=O)c3[nH]cnc23)cc(OC)c1CN1CCC2(CC1)CN(c1ccc3c(c1)C(=O)N(C1CCC(=O)NC1=O)C3)C2` (stereo not shown) [Compound D434], the DC50 was under 10 nM.

Consider `C/C=C/Cn1cc(-c2cc(OC)c(CN3CCC4(CC3)CN(c3ccc5c(c3)C(=O)N(C3CCC(=O)NC3=O)C5)C4)c(OC)c2)c2cc(C)[nH]c2c1=O` (stereo not shown) [Compound D467], for which the DC50 is over 1000 nM. As to `COc1cc(-c2cn(C)c(=O)c3cn(C)nc23)cc(OC)c1CN1CCC2(CC1)CN(c1ccc3c(c1)C(=O)N(C1CCC(=O)NC1=O)C3=O)C2` (stereo not shown) [Compound D415], the DC50 was under 10 nM.
